Experimental findings from patent US8916571B2, “Methods of treating cancer using inhibitors of 5′-methylthioadenosine phosphorylase” (Albert Einstein College of Medicine of Yeshiva University, priority 2006, dated 2014) are described below.

The test system of series [1] is PC3 cells. Description: Quantitation of polyamines in PC3 cells and spent media (HPLC fluorescence). The class given is cell-based, human. On the procedure:
PC3 cells were cultured and treated in triplicate as follows: untreated control, 20 μM substrate (MTA) alone, 1 μM compound (2) alone, or a combination of both substrate and inhibitor. Both cells and spent media were harvested at 1, 6, and 12 days for polyamine analysis by HPLC fluorescence.
(§1) Spent media and perchloric acid extracts of both PC3 cells and tissue samples were subjected to purification via cation exchange chromatography and dansyl-derivatized with minor changes. Disposable 10 ml BIO-RAD columns were centrifuged at 4,000 rpm for 3 minutes. Sodium carbonate used for derivatization was adjusted to pH 9.3 and the concentration of dansyl-chloride was adjusted to 100 mM. Dansyl-polyamines were quantitated by a Waters HPLC/Fluorescence system. A Phenomenex Luna 5μ C18 column was used with a mobile phase of 30% acetonitrile in a 50 mM ammonium acetate buffer at pH 6.8 (eluent A) and 100% acetonitrile (eluent B). Fluorescence detection was monitored by excitation at 338 nm and emission at 500 nm.

For series [2], the system named is liver polyamine levels. Description: Short-term treatment of mice, liver polyamine analysis. Particulars: short-term treatment (24, 48 hours, 7 days), 100 μM in drinking water. In kind it is in vivo, mouse. The protocol:
C56BI/6 mice were treated with 100 μM compound (2) via their drinking water and sacrificed at 24, 48 hours, and 7 days. Livers were immediately removed for polyamine analysis. TRAMP mice were treated approximately 6-8 months with 100 μM compound (2) via their drinking water and control sacrificed. Livers were removed for polyamine analysis.
as §1
Short-Term: Mice were treated with sterile solutions of 100 μM compound (2) (pH ˜6.4). Water bottles were autoclaved prior to filling with sterile inhibitor solutions. Mice were sacrificed at 1, 2, and 7 days, with three mice in each group, with the control group sacrificed after 7 days. […]

For series [3], the system named is FaDu cells. The series can be described thus: Time dependent proliferation (WST-1) and phase contrast microscopy of FaDu cells. In kind it is cell-based, human. On the procedure:
(§2) FaDu cells were maintained in MEM Eagle's media supplemented with 10% fetal bovine serum, 100 units/ml penicillin, 100 μg/mL streptomycin, 0.1 mM non essential amino acids and 1 mM sodium pyruvate. Cell survival was evaluated using the WST-1 assay (Kicska G A, long Li, Honig H, et al. Proc Natl Acad Sci USA 2001; 98:4593-98). Cells were seeded onto 96 well plates at a density of 10^4 cells per well, with either no additions, 1 μM compound (2), 20 μM MTA or 1 μM compound (2)+20 μM MTA, IC50 was determined following the manufacturer's protocol (Roche Applied Science, Ind.). Cells were grown and measured in triplicate or quadruplicate and the error bars show the mean±SD of the multiple samples.
FaDu cells were subjected to six days in culture using the same conditions described as for Example 4.

Series [4] has as its system FaDu xenografts. Description: FaDu xenograft study in NOD-SCID mice. In kind it is in vivo, mouse. On the procedure:
NOD-SCID mice (6-8 weeks old) were obtained from Jackson Laboratory (Bar Harbor, Me.). FaDu cells (10^6) were inoculated into the dorsum of the hind foot. After 5 days, mice were treated with 9 mg/kg or 21 mg/kg body weight of compound (2) in drinking water or by daily i.p. injections of 5 mg/kg body weight of compound (2). After inoculation mice were assigned to treatment or control groups (n=5). Tumor volume (V) was determined from: V=(4/3)*(22/7)*1/8*(length*width*height). Differences between treatment cohorts were determined using the Student's t test. Mice were weighed every 4-5 days, monitored for hair loss, loss of appetite, vomiting and diarrhea. Total and differential blood and bone marrow analyses were performed after treatment with compound (2).

Series [5] deals with normal human fibroblast cells (GM02037). Description: Cytotoxicity on normal human fibroblast cells. Conditions: GM02037 cells treated with compound and MTA for 3 weeks. In kind it is cell-based. On the procedure:
In order to determine whether the inhibition is selective for malignant cells, normal human fibroblast cells (GM02037) were also treated with compound (2) and MTA for 3 weeks. […] This selectivity is a further indication that the MTAP inhibitors described above are useful agents for the treatment of head and neck cancer.

For series [6], the system named is FaDu cells. Description: Cell cycle and apoptosis analysis of FaDu cells (propidium staining, FACS). The class given is cell-based, human. Conditions: in combination with MTA. The protocol:
as §2
FaDu cells were subjected to six days in culture using the same conditions described as for Example 4, before staining with propidium […] and FACS cell sorting analysis.

Series [7] has as its system PC3 cells. Description: Time dependent proliferation of PC3 cells (WST-1 assay). Conditions: 1 μM compound + 20 μM MTA. The class given is cell-based, human. The protocol: as §2, with “PC3” for “FaDu”, “Hong” for “Honig”, “MTA.” for “MTA,”

“Also recorded” adds a separate entry of the source.

Regarding `CSC[C@H]1CN(Cc2c[nH]c3c(N)ncnc23)C[C@@H]1O` [compound (2)], the “intracellular PUT levels” value in series [1] (1 μM compound + 20 μM MTA, 1 day) is 3.03×10^−3±2.86×10^−2 pmoles PUT/mg protein. In series [1] (compound + MTA, 1 day), the “SPN levels in spent media” value is listed as “slightly decreased”, the “increase in intracellular PUT levels vs control” value came to 6 fold, the “increase in intracellular SPD levels vs control” value is listed as about 2.5 fold and the “increase in spent media PUT levels vs control” value is 2 fold. Further, in series [1] (compound + MTA, 1 day), the “intracellular SPD levels” value is 7.19×10^−3±4.38×10^−2 pmoles SPD/mg protein and the “spent media PUT levels” value is 1.19×10^3±2.04×10^−1 pmoles PUT/mL spent media. In addition, in series [1] (compound + MTA, 6 days), the “PUT level vs control” value was “elevated”, the “SPD level vs control” value is “elevated”, the “decrease in cellular SPN levels vs control” value was “roughly 0.5 fold” and the “levels of PUT in spent media” value is reported as 2.41×10^−3±7.35×10^−1 pmoles PUT/mL spent media. The “levels of PUT in spent media relative to control” value in series [1] (compound + MTA, 6 days) is “almost double that of the control”. In series [1] (compound + MTA, day 12), the “cellular SPD levels” value is on record as 9.05×10^−3±1.09×10^−3 pmoles SPD/mg protein and the “intracellular PUT levels vs controls” value is recorded as “significantly higher than controls”. Besides, the “polyamine levels of mice livers” value in series [2] was “not significantly altered”. The cell proliferation result in series [3] (1 μM compound + 20 μM MTA) is recorded as “reduces cell proliferation”. The “cell growth (phase contrast photographs)” value in series [3] (5 days, inhibitor compound + MTA) was “effective in inhibiting cell growth”. For the same molecule, the “regrowth of tumor after treatment removed” value in series [4] (28 days after end of 28 day therapy, two highest doses) was “no regrowth of tumor”. Further, the “animal weight, total and differential blood counts vs control” value in series [4] (NOD-SCID mice, after 28 day treatment) is recorded as “No significant differences”. Besides, the “growth of established FaDu xenografts” value in series [4] (NOD-SCID mice, oral or i.p., with or without MTA) is recorded as “significantly slower than in controls; also recorded: significantly delays the growth”. Besides, the cytotoxicity result in series [5] is given as “No cytotoxicity was observed”. Also, the “stopping cell cycling / apoptosis” value in series [6] is “effective for stopping cell cycling”. Besides, in series [7], the cell proliferation entry was “reduces cell proliferation”.
